Consider five compounds from paper PMC5735135, “Oxidative rearrangement of (+)-sesamin by CYP92B14 co-generates twin dietary lignans in sesame” (Nature Communications, 2017).

One test deals with T1, CYP81Q1 (Sesamum indicum, UniProt Q33DY0).
T1 construct: full-length ORF expressed in yeast INVSc with sesame CPR1 (and CYP92B14); whole yeast cells
T1 sequence (Q33DY0 1-506): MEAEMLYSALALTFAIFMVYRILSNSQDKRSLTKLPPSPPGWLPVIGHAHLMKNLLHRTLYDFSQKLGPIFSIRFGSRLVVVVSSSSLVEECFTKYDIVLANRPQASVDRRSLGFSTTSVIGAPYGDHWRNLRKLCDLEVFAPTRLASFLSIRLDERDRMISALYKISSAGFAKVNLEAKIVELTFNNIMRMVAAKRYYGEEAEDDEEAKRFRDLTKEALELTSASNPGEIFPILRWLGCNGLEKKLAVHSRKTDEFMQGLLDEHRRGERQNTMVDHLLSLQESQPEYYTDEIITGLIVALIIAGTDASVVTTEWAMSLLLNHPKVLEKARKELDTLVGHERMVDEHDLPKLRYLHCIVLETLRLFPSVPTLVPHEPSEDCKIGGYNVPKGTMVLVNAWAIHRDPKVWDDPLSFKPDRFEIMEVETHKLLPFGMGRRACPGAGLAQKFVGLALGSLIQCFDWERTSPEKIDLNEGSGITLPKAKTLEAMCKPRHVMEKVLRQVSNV
Nature of the test: HPLC of products formed by yeast cells ([…] nm). Format: cell-based. To be noted: CPR1 and CYP92B14 co-expressed, 48 h.

The target in test [1] is T2, CYP92B14 (Sesamum indicum, UniProt A0A2Z5U627).
T2 construct: full-length ORF expressed in yeast INVSc with sesame CPR1 (GenBank LC209223) as reductase; microsomes or whole yeast cells
T2 sequence (A0A2Z5U627 1-513): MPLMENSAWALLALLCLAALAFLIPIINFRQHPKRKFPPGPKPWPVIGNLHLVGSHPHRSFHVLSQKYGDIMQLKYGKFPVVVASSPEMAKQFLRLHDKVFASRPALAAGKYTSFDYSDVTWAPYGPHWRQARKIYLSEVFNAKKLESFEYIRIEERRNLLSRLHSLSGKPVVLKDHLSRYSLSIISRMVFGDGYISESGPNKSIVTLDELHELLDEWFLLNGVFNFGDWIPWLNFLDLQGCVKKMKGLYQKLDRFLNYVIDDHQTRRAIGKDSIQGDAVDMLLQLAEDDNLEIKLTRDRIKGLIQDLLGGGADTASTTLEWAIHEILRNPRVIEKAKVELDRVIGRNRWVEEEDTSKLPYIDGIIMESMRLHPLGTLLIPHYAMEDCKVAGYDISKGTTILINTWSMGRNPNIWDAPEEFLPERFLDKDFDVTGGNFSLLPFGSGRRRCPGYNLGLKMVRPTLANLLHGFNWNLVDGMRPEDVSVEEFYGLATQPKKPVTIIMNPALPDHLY
Put plainly: HPLC of products formed by yeast microsomes. Format: biochemical. The conditions noted are these: 100 uM (+)-sesamin, 1 mM NADPH, CPR1 co-expressed, 37 °C, 60 min.

The target in test [2] is T2, CYP92B14. Nature of the test: inhibition of (+)-sesamolin and (+)-sesaminol formation. Format: cell-based. To be noted: substrate (+)-sesamin; also a reaction by-product.

Structures are written as SMILES.

In the case of `COc1cc([C@H]2OC[C@H]3[C@@H]2CO[C@@H]3c2ccc(O)c(OC)c2)ccc1O` [(+)-pinoresinol], the “HPLC of products formed by yeast cells (283 nm)” value at CYP81Q1 is “co-expressing CYP81Q1, CYP92B14, and CPR1 converted (+)-pinoresinol to (+)-sesaminol and (+)-sesamolin via (+)-sesamin”. `c1cc2c(cc1[C@H]1OC[C@H]3[C@@H]1CO[C@@H]3c1ccc3c(c1)OCO3)OCO2` [(+)-sesamin]: at CYP92B14 [1], the “HPLC of products formed by yeast microsomes” value was “yeast cells expressing CYP92B14 and CPR1 converted (+)-sesamin to (+)-sesamolin”. Turning to `Oc1ccc2c(c1)OCO2` [sesamol], on CYP92B14 [2], the “inhibition of (+)-sesamolin and (+)-sesaminol formation” value is recorded as “the supplementation of these two compounds clearly inhibited the biosynthetic activity of CYP92B14”.

For `OC1OC[C@@H]2[C@@H](c3ccc4c(c3)OCO4)OC[C@H]12` (single isomer, unassigned; (+)) [(+)-samin], at CYP92B14 [2], the “inhibition of (+)-sesamolin and (+)-sesaminol formation” value is recorded as “the supplementation of these two compounds clearly inhibited the biosynthetic activity of CYP92B14”. Take `c1cc2c(cc1O[C@H]1OC[C@H]3[C@@H]1CO[C@@H]3c1ccc3c(c1)OCO3)OCO2` [(+)-sesamolin]: on CYP92B14 [1], the “HPLC of products formed by yeast microsomes” value was “yeast cells expressing CYP92B14 and CPR1 converted (+)-sesamin to (+)-sesamolin”.
